# Measured values from PubChem BioAssay AID2060885 (Molecular Pharmacology Branch, DTP, NCI, 2025).
# System: NCI-H23 complex spheroids with HUVEC/MSC, viability
# Experiment: Anticancer human tumor NCI-H23 cell line growth inhibition [RAS];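 further: spheroids exposed to compound for 7 days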;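 on viability, T/C: 100% = DMSO vehicle control viability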
# Conditions: for IC50: curve of first compound; for viability, T/C: stronger effect = lower value
# Procedure, shortened: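 Tumour cells grown as complex spheroids with HUVEC endothelial cells and mesenchymal stem cells, treated with RAS pathway inhibitor combinations. Each agent spans half-log steps from near clinical Cmax, or 10 microM where Cmax is unknown.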
# [1] = second compound 0.000949 µM, first compound 0.0316 µM
# [2] = second compound 0.000949 µM, first compound 0.1 µM
# [3] = second compound 0.000949 µM, first compound 0.316 µM
# [4] = second compound 0.000949 µM, first compound 1 µM
# [5] = second compound 0.003 µM, first compound 0.0316 µM
# [6] = second compound 0.003 µM, first compound 0.1 µM
# [7] = second compound 0.003 µM, first compound 0.316 µM
# [8] = second compound 0.003 µM, first compound 1 µM
# [9] = second compound 0.00949 µM, first compound 0.0316 µM
# [10] = second compound 0.00949 µM, first compound 0.1 µM
# [11] = second compound 0.00949 µM, first compound 0.316 µM
# [12] = second compound 0.00949 µM, first compound 1 µM
# [13] = second compound 0.03 µM, first compound 0.0316 µM
# [14] = second compound 0.03 µM, first compound 0.1 µM
# [15] = second compound 0.03 µM, first compound 0.316 µM
# [16] = second compound 0.03 µM, first compound 1 µM
# [17] = second compound 0.0949 µM, first compound 0.0316 µM
# [18] = second compound 0.0949 µM, first compound 0.1 µM
# [19] = second compound 0.0949 µM, first compound 0.316 µM
# [20] = second compound 0.0949 µM, first compound 1 µM
# [21] = second compound 0.3 µM, first compound 0.0316 µM
# [22] = second compound 0.3 µM, first compound 0.1 µM
# [23] = second compound 0.3 µM, first compound 0.316 µM
# [24] = second compound 0.3 µM, first compound 1 µM
structure (smiles),measurement,setting,value
NC1c2ccccc2OC12CCN(c1cnc3c(N4CCCc5ncccc54)n[nH]c3n1)CC2 (centres undefined) + CCn1c(-c2cc(N3CCN(C)CC3)cnc2C(C)OC)c2c3cc(ccc31)-c1csc(n1)CC(NC(=O)C1CC1C)C(=O)N1CCCC(N1)C(=O)OCC(C)(C)C2,IC50,second compound 0.000949 µM,< 0.0316 µM
same,IC50,second compound 0.003 µM,< 0.0316 µM
same,IC50,second compound 0.00949 µM,< 0.0316 µM
same,IC50,second compound 0.03 µM,< 0.0316 µM
same,IC50,second compound 0.0949 µM,< 0.0316 µM
same,IC50,second compound 0.3 µM,< 0.0316 µM
same,"viability, T/C",[1],29%
same,"viability, T/C",[2],22.1%
same,"viability, T/C",[3],15.2%
same,"viability, T/C",[4],15.1%
same,"viability, T/C","second compound 0.000949 µM, first compound 3.16 µM",10.4%
same,"viability, T/C","second compound 0.000949 µM, first compound 10 µM",7.21%
same,"viability, T/C",[5],23.4%
same,"viability, T/C",[6],15.7%
same,"viability, T/C",[7],12.3%
same,"viability, T/C",[8],8.99%
same,"viability, T/C","second compound 0.003 µM, first compound 3.16 µM",8.38%
same,"viability, T/C","second compound 0.003 µM, first compound 10 µM",5.79%
same,"viability, T/C",[9],19.4%
same,"viability, T/C",[10],13.9%
same,"viability, T/C",[11],9.85%
same,"viability, T/C",[12],7.3%
same,"viability, T/C","second compound 0.00949 µM, first compound 3.16 µM",5.1%
same,"viability, T/C","second compound 0.00949 µM, first compound 10 µM",5.27%
same,"viability, T/C",[13],15.7%
same,"viability, T/C",[14],12.8%
same,"viability, T/C",[15],8.98%
same,"viability, T/C",[16],5.94%
same,"viability, T/C","second compound 0.03 µM, first compound 3.16 µM",4.97%
same,"viability, T/C","second compound 0.03 µM, first compound 10 µM",5.95%
same,"viability, T/C",[17],12.9%
same,"viability, T/C",[18],9.83%
same,"viability, T/C",[19],6.34%
same,"viability, T/C",[20],5.78%
same,"viability, T/C","second compound 0.0949 µM, first compound 3.16 µM",4.29%
same,"viability, T/C","second compound 0.0949 µM, first compound 10 µM",6.19%
same,"viability, T/C",[21],11%
same,"viability, T/C",[22],7.93%
same,"viability, T/C",[23],6.42%
same,"viability, T/C",[24],4.7%
same,"viability, T/C","second compound 0.3 µM, first compound 3.16 µM",4.58%
same,"viability, T/C","second compound 0.3 µM, first compound 10 µM",5.26%
Nc1ccn(C2OC(CO)C(O)C2(F)F)c(=O)n1 (centres undefined) + CCn1c(-c2cc(N3CCN(C)CC3)cnc2C(C)OC)c2c3cc(ccc31)-c1csc(n1)CC(NC(=O)C1CC1C)C(=O)N1CCCC(N1)C(=O)OCC(C)(C)C2,IC50,second compound 0.000949 µM,< 0.00316 µM
same,IC50,second compound 0.003 µM,< 0.00316 µM
same,IC50,second compound 0.00949 µM,< 0.00316 µM
same,IC50,second compound 0.03 µM,< 0.00316 µM
same,IC50,second compound 0.0949 µM,< 0.00316 µM
same,IC50,second compound 0.3 µM,< 0.00316 µM
same,"viability, T/C","second compound 0.000949 µM, first compound 0.00316 µM",16.9%
same,"viability, T/C","second compound 0.000949 µM, first compound 0.01 µM",2.1%
same,"viability, T/C",[1],2.03%
same,"viability, T/C",[2],1.87%
same,"viability, T/C",[3],1.82%
same,"viability, T/C",[4],1.3%
same,"viability, T/C","second compound 0.003 µM, first compound 0.00316 µM",12.9%
same,"viability, T/C","second compound 0.003 µM, first compound 0.01 µM",1.96%
same,"viability, T/C",[5],1.42%
same,"viability, T/C",[6],1.52%
same,"viability, T/C",[7],2.04%
same,"viability, T/C",[8],1.24%
same,"viability, T/C","second compound 0.00949 µM, first compound 0.00316 µM",12.6%
same,"viability, T/C","second compound 0.00949 µM, first compound 0.01 µM",1.87%
same,"viability, T/C",[9],2.05%
same,"viability, T/C",[10],1.74%
same,"viability, T/C",[11],2.15%
same,"viability, T/C",[12],2.22%
same,"viability, T/C","second compound 0.03 µM, first compound 0.00316 µM",12%
same,"viability, T/C","second compound 0.03 µM, first compound 0.01 µM",2.82%
same,"viability, T/C",[13],2.27%
same,"viability, T/C",[14],2.33%
same,"viability, T/C",[15],1.56%
same,"viability, T/C",[16],1.99%
same,"viability, T/C","second compound 0.0949 µM, first compound 0.00316 µM",12.2%
same,"viability, T/C","second compound 0.0949 µM, first compound 0.01 µM",3.4%
same,"viability, T/C",[17],3.37%
same,"viability, T/C",[18],2.4%
same,"viability, T/C",[19],2.14%
same,"viability, T/C",[20],2.59%
same,"viability, T/C","second compound 0.3 µM, first compound 0.00316 µM",15.5%
same,"viability, T/C","second compound 0.3 µM, first compound 0.01 µM",5.87%
same,"viability, T/C",[21],3.63%
same,"viability, T/C",[22],3.14%
same,"viability, T/C",[23],2.91%
same,"viability, T/C",[24],3.48%
